ChEMBL document CHEMBL1201862, “PubChem BioAssay data set” (2004)
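1) Cells in 96-well plates. 2) Compound, 48 h, 5 concentrations. 3) Linear interpolation between surrounding doses. 4) Unreached endpoint = highest concentration. At the GI50, growth is halved.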 The source made the active and inactive calls. No stated cut-off is given here; in the data, active = GI50 up to about 1.1 µM and inactive = higher.

Tests used:
Assay in all cases: DTP human tumour cell line panel, 48 h
HT-29 = tested on: HT-29
COLO 205 = tested on: COLO 205
M14 = tested on: M14
SNB-19 = tested on: SNB-19
UACC-62 = tested on: UACC-62
RXF 393 = tested on: RXF 393
NCI-H460 = tested on: NCI-H460
Hs-578T = tested on: Hs-578T
SF-295 = tested on: SF-295
HOP-62 = tested on: HOP-62
SK-MEL-2 = tested on: SK-MEL-2
HCT-116 = tested on: HCT-116
K562 = tested on: K562
A549 = tested on: A549
MDA-MB-231 = tested on: MDA-MB-231
EKVX = tested on: EKVX
IGROV-1 = tested on: IGROV-1
U-251 = tested on: U-251
MOLT-4 = tested on: MOLT-4
T47D = tested on: T47D
TK-10 = tested on: TK-10
HL-60 = tested on: HL-60
NCI/ADR-RES = tested on: NCI/ADR-RES
MCF7 = tested on: MCF7
DU-145 = tested on: DU-145
OVCAR-4 = tested on: OVCAR-4
LOX IMVI = tested on: LOX IMVI
NCI-H226 = tested on: NCI-H226
NCI-H23 = tested on: NCI-H23
MDA-N = tested on: MDA-N
Malme-3M = tested on: Malme-3M
SW-620 = tested on: SW-620
CCRF-CEM = tested on: CCRF-CEM
UACC-257 = tested on: UACC-257
SK-OV-3 = tested on: SK-OV-3
OVCAR-5 = tested on: OVCAR-5
BT-549 = tested on: BT-549
SN12C = tested on: SN12C
SNB-75 = tested on: SNB-75
OVCAR-8 = tested on: OVCAR-8
SF-539 = tested on: SF-539
KM12 = tested on: KM12
ACHN = tested on: ACHN
OVCAR-3 = tested on: OVCAR-3
SF-268 = tested on: SF-268
PC-3 = tested on: PC-3
SK-MEL-5 = tested on: SK-MEL-5
RPMI-8226 = tested on: RPMI-8226
NCI-H522 = tested on: NCI-H522
SK-MEL-28 = tested on: SK-MEL-28
MDA-MB-435 = tested on: MDA-MB-435
SR = tested on: SR
786-0 = tested on: 786-0
HOP-92 = tested on: HOP-92
UO-31 = tested on: UO-31
HCT-15 = tested on: HCT-15
A498 = tested on: A498
HCC 2998 = tested on: HCC 2998
CAKI-1 = tested on: CAKI-1

## O=C(O)c1cc(-c2ccc3cc4c(cc3c2)OCO4)nc2ccccc12
HT-29
  GI50: 25.9 µM (inactive)
COLO 205
  GI50: 42.4 µM (inactive)
M14
  GI50: 28 µM (inactive)
SNB-19
  GI50: 25.7 µM (inactive)
UACC-62
  GI50: 23.5 µM (inactive)
RXF 393
  GI50: 54 µM (inactive)
NCI-H460
  GI50: 12.9 µM (inactive)
Hs-578T
  GI50: 49.2 µM (inactive)
SF-295
  GI50: 23.8 µM (inactive)
HOP-62
  GI50: 41.1 µM (inactive)
SK-MEL-2
  GI50: 62.7 µM (inactive)
HCT-116
  GI50: 19.5 µM (inactive)
K562
  GI50: 32.5 µM (inactive)
A549
  GI50: 21.1 µM (inactive)
MDA-MB-231
  GI50: 31.4 µM (inactive)
EKVX
  GI50: 14.4 µM (inactive)
IGROV-1
  GI50: 29 µM (inactive)
U-251
  GI50: 19.7 µM (inactive)
MOLT-4
  GI50: 28.8 µM (inactive)
T47D
  GI50: 54.8 µM (inactive)
TK-10
  GI50: 18.2 µM (inactive)
HL-60
  GI50: 16.5 µM (inactive)
NCI/ADR-RES
  GI50: 40.7 µM (inactive)
MCF7
  GI50: 32.2 µM (inactive)
DU-145
  GI50: 63.4 µM (inactive)
OVCAR-4
  GI50: > 100 µM (inactive)
LOX IMVI
  GI50: 29.3 µM (inactive)
NCI-H226
  GI50: 42.4 µM (inactive)
NCI-H23
  GI50: 43.8 µM (inactive)
MDA-N
  GI50: 36 µM (inactive)
Malme-3M
  GI50: 65.2 µM (inactive)
SW-620
  GI50: 45.2 µM (inactive)
CCRF-CEM
  GI50: 11.3 µM (inactive)
UACC-257
  GI50: 5.41 µM (inactive)
SK-OV-3
  GI50: 44.7 µM (inactive)
OVCAR-5
  GI50: 28.5 µM (inactive)
BT-549
  GI50: 22.8 µM (inactive)
SN12C
  GI50: 20.8 µM (inactive)
SNB-75
  GI50: 49.7 µM (inactive)
OVCAR-8
  GI50: 37.1 µM (inactive)
SF-539
  GI50: 92.9 µM (inactive)
KM12
  GI50: > 100 µM (inactive)
ACHN
  GI50: 37.8 µM (inactive)
OVCAR-3
  GI50: 41.6 µM (inactive)
SF-268
  GI50: 28.6 µM (inactive)
PC-3
  GI50: 14.1 µM (inactive)
SK-MEL-5
  GI50: 24 µM (inactive)
RPMI-8226
  GI50: 45.9 µM (inactive)
NCI-H522
  GI50: 35.3 µM (inactive)
SK-MEL-28
  GI50: 47.5 µM (inactive)
MDA-MB-435
  GI50: 85.3 µM (inactive)
SR
  GI50: 7.45 µM (inactive)
786-0
  GI50: 30.7 µM (inactive)
HOP-92
  GI50: 20.1 µM (inactive)
UO-31
  GI50: 11.5 µM (inactive)
HCT-15
  GI50: 12.3 µM
A498
  GI50: 23.9 µM (inactive)

## O=c1c2ccc(Cl)cc2oc2c(CSc3ccccc3)cccc12
HT-29
  GI50: 95.9 µM (inactive)
COLO 205
  GI50: > 70 µM (inactive)
M14
  GI50: > 42.5 µM (inactive)
SNB-19
  GI50: > 45.5 µM (inactive)
UACC-62
  GI50: > 41.4 µM (inactive)
RXF 393
  GI50: > 100 µM (inactive)
NCI-H460
  GI50: 23.8 µM (inactive)
Hs-578T
  GI50: > 100 µM (inactive)
SF-295
  GI50: > 43.9 µM (inactive)
HOP-62
  GI50: > 55 µM (inactive)
SK-MEL-2
  GI50: > 49.1 µM (inactive)
HCT-116
  GI50: 28.2 µM (inactive)
K562
  GI50: 15.3 µM (inactive)
A549
  GI50: > 32.4 µM (inactive)
MDA-MB-231
  GI50: > 63 µM (inactive)
EKVX
  GI50: > 50.4 µM (inactive)
IGROV-1
  GI50: > 24 µM (inactive)
U-251
  GI50: 39.9 µM (inactive)
HCC 2998
  GI50: > 54.1 µM (inactive)
MOLT-4
  GI50: 15.8 µM (inactive)
T47D
  GI50: 61.7 µM (inactive)
TK-10
  GI50: > 55.3 µM (inactive)
NCI/ADR-RES
  GI50: > 50.2 µM (inactive)
MCF7
  GI50: 29.1 µM (inactive)
DU-145
  GI50: 70.5 µM (inactive)
OVCAR-4
  GI50: > 59.4 µM (inactive)
LOX IMVI
  GI50: 9.57 µM (inactive)
NCI-H226
  GI50: 46.3 µM (inactive)
NCI-H23
  GI50: 28.4 µM (inactive)
MDA-N
  GI50: 31.7 µM (inactive)
Malme-3M
  GI50: 14.2 µM (inactive)
SW-620
  GI50: 21.5 µM (inactive)
CCRF-CEM
  GI50: 10.1 µM (inactive)
UACC-257
  GI50: > 57.9 µM (inactive)
SK-OV-3
  GI50: > 55 µM (inactive)
OVCAR-5
  GI50: > 62.8 µM (inactive)
BT-549
  GI50: > 43 µM (inactive)
SN12C
  GI50: 43.6 µM (inactive)
SNB-75
  GI50: > 33.2 µM (inactive)
OVCAR-8
  GI50: 62.7 µM (inactive)
SF-539
  GI50: 24.5 µM (inactive)
KM12
  GI50: 21.6 µM (inactive)
ACHN
  GI50: > 39.2 µM (inactive)
OVCAR-3
  GI50: > 40.8 µM (inactive)
SF-268
  GI50: > 100 µM (inactive)
PC-3
  GI50: > 39.5 µM (inactive)
SK-MEL-5
  GI50: > 46.6 µM (inactive)
CAKI-1
  GI50: > 38.5 µM (inactive)
RPMI-8226
  GI50: 13.2 µM (inactive)
NCI-H522
  GI50: > 32.5 µM (inactive)
SK-MEL-28
  GI50: > 53.1 µM (inactive)
MDA-MB-435
  GI50: > 21.9 µM (inactive)
SR
  GI50: 9.64 µM (inactive)
786-0
  GI50: > 61.5 µM (inactive)
HOP-92
  GI50: > 39.4 µM (inactive)
HCT-15
  GI50: 28.4 µM
A498
  GI50: 25.7 µM (inactive)
